Laboratory results reported in PubChem BioAssay (NCI).
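Step 1: Grow cells in 96-well plates. Step 2: Expose to compound for 48 hours at 5 concentrations. Step 3: Interpolate endpoints linearly; if unreached, use highest concentration. TGI denotes the concentration required for complete inhibition of growth.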

Experiments:
Experiment in all cases: inhibition of tumour cell growth, NCI panel, 48 h
786-0 renal = test system: 786-0 renal
A498 renal = test system: A498 renal
ACHN renal = test system: ACHN renal
MDA-MB-435 = test system: MDA-MB-435
NCI-H23 lung = test system: NCI-H23 lung
NCI-H522 lung = test system: NCI-H522 lung
OVCAR-5 ovarian = test system: OVCAR-5 ovarian
SF-268 CNS = test system: SF-268 CNS
SK-OV-3 ovarian = test system: SK-OV-3 ovarian
SN12C renal = test system: SN12C renal
SW-620 colon = test system: SW-620 colon
T-47D breast = test system: T-47D breast
TK-10 renal = test system: TK-10 renal
U251 CNS = test system: U251 CNS
HCT-15 colon = test system: HCT-15 colon
HOP-92 NSCLC = test system: HOP-92 NSCLC
HS 578T breast = test system: HS 578T breast
NCI-H226 lung = test system: NCI-H226 lung
BT-549 breast = test system: BT-549 breast

SMILES	TGI (786-0 renal) [µM]	TGI (A498 renal) [µM]	TGI (ACHN renal) [µM]	TGI (MDA-MB-435) [µM]	TGI (NCI-H23 lung) [µM]	TGI (NCI-H522 lung) [µM]	TGI (OVCAR-5 ovarian) [µM]	TGI (SF-268 CNS) [µM]	TGI (SK-OV-3 ovarian) [µM]	TGI (SN12C renal) [µM]	TGI (SW-620 colon) [µM]	TGI (T-47D breast) [µM]	TGI (TK-10 renal) [µM]	TGI (U251 CNS) [µM]	TGI (HCT-15 colon) [µM]	TGI (HOP-92 NSCLC) [µM]	TGI (HS 578T breast) [µM]	TGI (NCI-H226 lung) [µM]	TGI (BT-549 breast) [µM]
CNC(=O)CCCNC(=O)CCCCC(=O)N(C)C	> 100	> 100	> 100	> 100	> 100	> 100	> 100	> 100	> 100	> 100	> 100	> 100	> 100	> 100	–	–	–	–	–
O=c1[nH]nc(-c2ccccc2)n1-c1cccc([N+](=O)[O-])c1	> 100	> 100	> 100	> 100	> 100	> 100	> 100	> 100	> 100	> 100	> 100	> 100	> 100	> 100	> 100	> 100	> 100	> 100	–
CCOC(=O)[C@@H]1ON2O[C@@H](OC3CCCCC3c3ccccc3)C[C@H]3OC(=O)[C@@H]1C32 (stereo partly specified)	> 100	> 100	> 100	> 100	> 100	> 100	> 100	> 100	> 100	> 100	> 100	> 100	> 100	> 100	> 100	> 100	> 100	> 100	–
CC(C)OC(=O)C1(C(C)C)CCc2ccc(C(=O)CCC(=O)O)cc21 (stereo unspecified)	> 100	–	> 100	–	> 100	> 100	> 100	> 100	> 100	> 100	> 100	> 100	> 100	> 100	> 100	–	> 100	> 100	> 100
CC(C)(C)n1c(=O)n(-c2ccccc2)n(C(C)(C)C)c1=O	> 100	> 100	> 100	–	> 100	–	> 100	–	> 100	> 100	> 100	–	> 100	> 100	> 100	> 100	> 100	> 100	> 100
O=C(O/N=c1/ccc(=O)/c(=N\OC(=O)c2ccccc2)c1=O)c1ccccc1	> 100	> 100	> 100	> 100	> 100	> 100	> 100	> 100	> 100	> 100	> 100	> 100	> 100	> 100	> 100	> 100	> 100	> 100	–
CC(=O)N1C(=O)c2cc3ccccc3cc21	> 100	89.4	> 100	> 100	> 100	–	> 100	> 100	> 100	> 100	> 100	> 100	> 100	> 100	> 100	> 100	> 100	> 100	–
CC(C)(C)[Si](C)(C)OCCc1ccccc1C1CC2(S(=O)(=O)c3ccccc3)ON1CC2S(=O)(=O)c1ccccc1 (stereo unspecified)	> 100	> 100	> 100	> 100	> 100	–	> 100	> 100	> 100	> 100	> 100	> 100	> 100	> 100	–	–	> 100	> 100	> 100
O=C(/C=C/c1ccccc1)c1cc(C(=O)/C=C/c2ccccc2)c(O)cc1O	> 100	90.7	> 100	> 100	> 100	–	> 100	–	> 100	> 100	> 100	–	> 100	–	> 100	> 100	83.7	–	> 100
CN(/N=C/C=N/N(C)C1=NCCCN1)C1=NCCCN1	> 100	–	> 100	> 100	> 100	> 100	> 100	> 100	> 100	> 100	> 100	–	> 100	> 100	> 100	> 100	> 100	> 100	> 100
COc1ccc(/C=C2\CCC(C)c3c2nc(N)c(C#N)c3-c2ccc(OC)c(OC)c2)cc1OC (stereo unspecified)	> 100	–	> 100	> 100	> 100	–	> 100	> 100	> 100	> 100	> 100	6.38	> 100	> 100	> 100	–	> 100	> 100	> 100
C=C1CCC2[C@](C)(CCC[C@]2(C)C(=O)O)[C@@H]1CCc1ccoc1 (stereo partly specified)	> 100	> 100	> 100	> 100	50.7	> 100	> 100	> 100	> 100	> 100	> 100	> 100	74.7	–	> 100	–	80.3	65.8	–
CN(C(=S)Cc1ccc(Cl)c(Cl)c1)C1CCCC[C@@H]1N1CCCC1 (stereo partly specified)	55	60.6	> 100	87.5	> 100	–	> 100	–	> 100	> 100	48.4	> 100	89.2	> 100	> 100	–	–	> 100	> 100
COC(=O)CSc1nc2[nH]c(SC)c(C(N)=O)c2c(=O)n1-c1ccccc1	> 10	–	–	> 10	> 10	–	–	> 10	> 10	> 10	> 10	> 10	> 10	–	> 10	> 10	–	–	–
